Here are results for 32 compounds from patent US20070249639A1, “Use of 9H-Purine-2,6-Diamine Derivatives in the Treatment of Proliferative Diseases and Novel 9H-Purine-2,6-Diamine Derivatives” (priority 2004, published 2007).

T1 sequence (P11388 whole entry): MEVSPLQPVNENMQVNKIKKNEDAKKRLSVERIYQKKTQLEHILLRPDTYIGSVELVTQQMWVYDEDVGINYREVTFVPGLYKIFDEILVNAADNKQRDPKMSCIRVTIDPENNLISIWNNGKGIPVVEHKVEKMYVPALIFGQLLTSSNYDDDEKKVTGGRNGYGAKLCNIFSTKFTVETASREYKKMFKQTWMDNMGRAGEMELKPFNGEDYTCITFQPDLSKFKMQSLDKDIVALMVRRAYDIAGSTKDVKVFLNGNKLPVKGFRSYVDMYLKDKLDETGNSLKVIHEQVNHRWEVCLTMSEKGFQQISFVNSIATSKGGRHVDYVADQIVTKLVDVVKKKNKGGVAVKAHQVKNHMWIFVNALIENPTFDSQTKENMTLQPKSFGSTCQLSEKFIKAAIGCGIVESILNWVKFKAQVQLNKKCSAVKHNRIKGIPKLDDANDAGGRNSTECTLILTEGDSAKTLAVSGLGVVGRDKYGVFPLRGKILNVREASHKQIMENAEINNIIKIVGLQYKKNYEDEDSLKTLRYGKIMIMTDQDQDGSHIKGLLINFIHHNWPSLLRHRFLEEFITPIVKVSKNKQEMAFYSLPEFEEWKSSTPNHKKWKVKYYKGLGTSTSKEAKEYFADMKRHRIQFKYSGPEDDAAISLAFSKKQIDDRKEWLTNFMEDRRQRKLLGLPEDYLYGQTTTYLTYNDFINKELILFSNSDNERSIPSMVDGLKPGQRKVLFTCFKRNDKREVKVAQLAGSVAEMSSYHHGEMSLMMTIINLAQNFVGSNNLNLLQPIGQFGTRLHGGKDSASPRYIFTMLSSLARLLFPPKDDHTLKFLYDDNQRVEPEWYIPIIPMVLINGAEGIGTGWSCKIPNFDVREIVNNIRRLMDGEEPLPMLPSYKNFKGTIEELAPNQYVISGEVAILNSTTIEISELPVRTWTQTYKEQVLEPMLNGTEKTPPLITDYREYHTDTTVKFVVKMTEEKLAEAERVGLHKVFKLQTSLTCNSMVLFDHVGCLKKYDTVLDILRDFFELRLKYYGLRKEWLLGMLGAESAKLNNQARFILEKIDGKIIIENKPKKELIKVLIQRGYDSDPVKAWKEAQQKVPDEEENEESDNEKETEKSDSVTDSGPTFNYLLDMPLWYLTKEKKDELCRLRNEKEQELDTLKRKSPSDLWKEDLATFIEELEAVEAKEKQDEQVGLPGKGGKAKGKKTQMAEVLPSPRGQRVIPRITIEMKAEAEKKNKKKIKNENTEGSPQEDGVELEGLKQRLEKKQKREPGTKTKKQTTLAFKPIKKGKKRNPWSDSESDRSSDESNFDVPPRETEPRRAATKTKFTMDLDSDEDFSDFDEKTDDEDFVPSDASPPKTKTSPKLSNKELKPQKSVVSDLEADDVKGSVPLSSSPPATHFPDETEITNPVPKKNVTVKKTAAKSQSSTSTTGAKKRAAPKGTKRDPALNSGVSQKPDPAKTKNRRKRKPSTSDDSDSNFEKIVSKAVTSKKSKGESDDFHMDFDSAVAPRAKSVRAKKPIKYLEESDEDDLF

This assay has as its target T1, human topoisomerase II α (Homo sapiens, UniProt P11388).
T1 construct: purchased Professor Neil Osheroff (Vanderbilt University, Nashville, Tenn., USA)
As to the kind of experiment: Topoisomerase II ATPase assay (Malachite Green). The following applies: Percent inhibition @10 μM, Malachite Green assay; read-out: TOPO II inh. (inhibition of the TOPO ATPase activity). In kind it is biochemical. As to the method: The inhibition of topoisomerase II is measured as follows:
Purified human topoisomerase II α was purchased from Professor Neil Osheroff (Vanderbilt University—Nashville, Tenn., USA).
The pUC18 (Stratagene) plasmid was introduced into Escherichia coil XL-1 (Stratagene) and purified with the HiSpeed Plasmid Purification kit (Qiagen) according to the manufacturer instructions. The purity of the DNA preparations was evaluated spectrophotometrically (OD260/OD280 ratio) and by agarose gel.
Preparation of the Malachite Green Reagent:
Three volumes of 0.045% malachite green (Sigma, catalog no. M-9636) diluted in water are mixed for 20 min at room temperature with one volume of 4.2% ammonium molybdate (Axon Lab AG, catalog no. A-2246) diluted in 4 N HCl. After mixing, Triton X-100 (Merck, catalog no. 1.12298) is added to a final concentration of 0.01%. The solution is filtered at 0.2 μm and stored at room temperature in the dark.
ATP hydrolysis was monitored by measuring the production of inorganic phosphate released during the catalytic cycle of topoisomerase II α with acidic molybdate and malachite green (Lanzetta,et al., An improved assay for nanomole amounts of inorganic phosphate, Anal Biochem 1979;100:95-7). Briefly, human topoisomerase II α is pre-incubated at 37° C. for 10 min in 90 μl reaction buffer (10 mM Tris.HCl pH 7.9, 175 mM KCl, 1 mM EDTA, 2 mM DTT, 5 mM MgCl2, 2.5% glycerol) in the presence of the indicated amount of pUC18 and DMSO in F96 maxisorp Nunclmmuno plates (Nunc). The reaction is initiated by the addition of 10 μl ATP at the indicated concentrations and is carried out for 30 min at 37° C. under constant agitation. The reaction is stopped by the addition of 200 μl molybdate/malachite green solution and the absorbance is immediately measured at 630 nm. The OD630 value is measured in the absence of protein for each ATP concentration (background) is subtracted from the value obtained in the presence of enzyme. A standard curve with inorganic phosphate is used to determine the amount of inorganic phosphate produced during the reaction and to ensure that the measures are in the linear range of the assay. The kinetic parameters of the enzymes are determined from measurements (at least in duplicate) of the initial rates at different ATP concentrations. The data are analyzed with GraFit (Erithacus Software).
The compounds are tested at 10 μM of concentration to determine their inhibition potential given % of inhibition of the TOPO II ATPase activity.
For the determination of the IC50, the procedure is repeated for different concentrations of test compound selected to cover the range of 0% to 100% inhibition and the concentration at which 50% inhibition of topoisomerase II occurs (IC50) for each compound is determined from concentration-inhibition curves in a conventional manner.
For orientation: inhibition means the share of the control response that was lost under treatment. Take `C=C(C=Cc1nc(OCCN2CCOCC2)sc1C)Nc1nc(NC(C)(C)C)c2nc(C(C)C)[nH]c2n1` [Example 38, N*6*-tert-Butyl-8-isopropyl-N*2*-{1-methylene-3-[5-methyl-2-(2-morpholin-4-yl-ethoxy)-thiazol-4-yl]-allyl}-9H-purine-2,6-diamine]: the inhibition at 10 µM was < 50%.

Regarding `C=C(C=Cc1nc(OCCN2CCOCC2)sc1C)Nc1nc(NC(C)(C)C)c2nc(C3CC3)[nH]c2n1` [Example 39, N*6*-tert-Butyl-8-cyclopropyl-N*2*-{1-methylene-3-[5-methyl-2-(2-morpholin-4-yl-ethoxy)-thiazol-4-yl]-allyl}-9H-purine-2,6-diamine], the inhibition at 10 µM lay in the range of 65 to 80%.

As to `C=C(C=Cc1nc(OCCN2CCOCC2)sc1C)Nc1nc(NC(C)(C)C)c2nc(C3CCCC3)[nH]c2n1` [Example 40, N*6*-tert-Butyl-8-cyclopentyl-N*2*-{1-methylene-3-[5-methyl-2-(2-morpholin-4-yl-ethoxy)-thiazol-4-yl]-allyl}-9H-purine-2,6-diamine], the inhibition at 10 µM was found to be 0%.

On to `CC(C)(C)Nc1nc(Nc2ccc3ncsc3c2)nc2[nH]c(C3CC3)nc12` [Example 41, N*2*-Benzothiazol-6-yl-N*6*-tert-butyl-8-cyclopropyl-9H-purine-2,6-diamine], for which the inhibition at 10 µM is 65 to 80%. Take `CC(C)(C)Nc1nc(Nc2ccc3ncsc3c2)nc2[nH]c(N)nc12` [Example 42, N*2*-Benzothiazol-6-yl-N*6*-tert-butyl-9H-purine-2,6,8-triamine]: the inhibition at 10 µM lay within 65 to 80%. On to `CC(C)(C)Nc1nc(Nc2ccc3ccccc3c2)nc2[nH]c(N)nc12` [Example 43, N*6*-tert-Butyl-N*2*-naphthalen-2-yl-9H-purine-2,6,8-triamine], for which the inhibition at 10 µM fell in the range of 65 to 80%. As to `CNc1nc2c(NC(C)(C)C)nc(Nc3ccc4ccccc4c3)nc2[nH]1` [Example 44, N*6*-tert-Butyl-N*8*-methyl-N*2*-naphthalen-2-yl-9H-purine-2,6,8-triamine], the inhibition at 10 µM lay within 65 to 80%. In the case of `CC(=O)c1nc2c(NC(C)(C)C)nc(Nc3ccc4ncsc4c3)nc2[nH]1` [Example 45, 1-[2-(Benzothiazol-6-ylamino)-6-tert-butylamino-9H-purin-8-yl]-ethanone], the inhibition at 10 µM is < 50%. As for `CC(C)(C)Nc1nc(Nc2ccc3ncccc3c2)nc2[nH]cnc12` [Example 46, N*6*-tert-Butyl-N*2*-quinolin-6-yl-9H-purine-2,6-diamine], the figure is 50 to 65%; as for `CC(C)(C)Nc1nc(Nc2ccc3nsnc3c2)nc2[nH]cnc12` [Example 47, N*2*-Benzo[1,2,5]thiadiazol-5-yl-N*6*-tert-butyl-9H-purine-2,6-diamine], < 50%. For `c1nc2c(NC3CCCCCC3)nc(Nc3ccc4nsnc4c3)nc2[nH]1` [Example 49, N*2*-Benzo[1,2,5]thiadiazol-5-yl-N*6*-cycloheptyl-9H-purine-2,6-diamine], the inhibition at 10 µM is < 50%. `Cc1nc2ccc(Nc3nc(NC4CCCCCC4)c4nc[nH]c4n3)cc2s1` [Example 50, N*6*-Cycloheptyl-N*2*-(2-methyl-benzothiazol-6-yl)-9H-purine-2,6-diamine]: the inhibition at 10 µM was in the range of 50 to 65%. On to `CCC(C)(C)Nc1nc(Nc2ccc3ncsc3c2)nc2[nH]cnc12` [Example 51, N*2*-Benzothiazol-6-yl-N*6*-(1,1-dimethyl-propyl)-9H-purine-2,6-diamine], for which the inhibition at 10 µM lay within 50 to 65%.

As for `CCC(C)(C)Nc1nc(Nc2ccc3ncccc3c2)nc2[nH]cnc12` [Example 52, N*6*-(1,1-Dimethyl-propyl)-N*2*-quinolin-6-yl-9H-purine-2,6-diamine], the inhibition at 10 µM was < 50%. Consider `CCC(C)(C)Nc1nc(Nc2ccc3nsnc3c2)nc2[nH]cnc12` [Example 53, N*2*-Benzo[1,2,5]thiadiazol-5-yl-N*6*-(1,1-dimethyl-propyl)-9H-purine-2,6-diamine], for which the inhibition at 10 µM was < 50%.

Regarding `CCC(C)(C)Nc1nc(Nc2ccc3nc(C)sc3c2)nc2[nH]cnc12` [Example 54, N*6*-(1,1-Dimethyl-propyl)-N*2*-(2-methyl-benzothiazol-6-yl)-9H-purine-2,6-diamine], the inhibition at 10 µM is < 50%.

Consider `CC(C)(Cc1ccc(F)cc1)Nc1nc(Nc2ccc3ncsc3c2)nc2[nH]cnc12` [Example 55, N*2*-Benzothiazol-6-yl-N*6*-[2-(4-fluoro-phenyl)-1,1-dimethyl-ethyl]-9H-purine-2,6-diamine], for which the inhibition at 10 µM is < 50%. For `CC(C)(Cc1ccc(F)cc1)Nc1nc(Nc2ccc3ncccc3c2)nc2[nH]cnc12` [Example 56, N*6*-[2-(4-Fluoro-phenyl)-1,1-dimethyl-ethyl]-N*2*-quinolin-6-yl-9H-purine-2,6-diamine] the value was < 50%. Take `CC(C)(Cc1ccc(F)cc1)Nc1nc(Nc2ccc3nsnc3c2)nc2[nH]cnc12` [Example 57, N*2*-Benzo[1,2,5]thiadiazol-5-yl-N*6*-[2-(4-fluoro-phenyl)-1,1-dimethyl-ethyl]-9H-purine-2,6-diamine]: the inhibition at 10 µM was < 50%. With `Cc1nc2ccc(Nc3nc(NC(C)(C)Cc4ccc(F)cc4)c4nc[nH]c4n3)cc2s1` [Example 58, N*6*-[2-(4-Fluoro-phenyl)-1,1-dimethyl-ethyl]-N*2*-(2-methyl-benzothiazol-6-yl)-9H-purine-2,6-diamine], the inhibition at 10 µM was < 50%.

As for `c1cncc(N2CCN(c3nc(Nc4ccc5ncsc5c4)nc4[nH]cnc34)CC2)c1` [Example 59, Benzothiazol-6-yl-[6-(4-pyridin-3-yl-piperazin-1-yl)-9H-purin-2-yl]-amine], the inhibition at 10 µM is < 50%. In the case of `c1ccc(N2CCN(c3nc(Nc4ccc5ncsc5c4)nc4[nH]cnc34)CC2)nc1` [Example 60, Benzothiazol-6-yl-[6-(4-pyridin-2-yl-piperazin-1-yl)-9H-purin-2-yl]-amine], the inhibition at 10 µM was < 50%. For `c1ccc(N2CCN(c3nc(Nc4ccc5ncccc5c4)nc4[nH]cnc34)CC2)nc1` [Example 61, [6-(4-Pyridin-2-yl-piperazin-1-yl)-9H-purin-2-yl]-quinolin-6-yl-amine], the inhibition at 10 µM was < 50%. Regarding `c1ccc(N2CCN(c3nc(Nc4ccc5nsnc5c4)nc4[nH]cnc34)CC2)nc1` [Example 62, Benzo[1,2,5]thiadiazol-5-yl-[6-(4-pyridin-2-yl-piperazin-1-yl)-9H-purin-2-yl]-amine], the inhibition at 10 µM was < 50%. For `Cc1nc2ccc(Nc3nc(N4CCN(c5ccccn5)CC4)c4nc[nH]c4n3)cc2s1` [Example 63, (2-Methyl-benzothiazol-6-yl)-[6-(4-pyridin-2-yl-piperazin-1-yl)-9H-purin-2-yl]-amine], the inhibition at 10 µM was < 50%. For `c1cnc2ccc(Nc3nc(N4CCN(c5cnccn5)CC4)c4nc[nH]c4n3)cc2c1` [Example 64, Quinolin-6-yl-[6-(2,3,5,6-tetrahydro-[1,2′]bipyrazinyl-4-yl)-9H-purin-2-yl]-amine] the value was < 50%; for `CC(C)(C)Nc1nc(Nc2ccc3ncsc3c2)nc2[nH]cnc12` [Example 65, N*2*-Benzothiazol-6-yl-N*6*-tert-butyl-9H-purine-2,6-diamine], 50 to 65%; for `c1nc2c(NC3CCCCCC3)nc(Nc3ccc4ncsc4c3)nc2[nH]1` [Example 66, N*2*-Benzothiazol-6-yl-N*6*-cycloheptyl-9H-purine-2,6-diamine], < 50%.

For `c1cnc2ccc(Nc3nc(NC4CCCCCC4)c4nc[nH]c4n3)cc2c1` [Example 67, N*6*-Cycloheptyl-N*2*-quinolin-6-yl-9H-purine-2,6-diamine], the inhibition at 10 µM was < 50%. As to `CC(C)(CO)Nc1nc(Nc2ccc3ncsc3c2)nc2[nH]cnc12` [Example 68, 2-[2-(Benzothiazol-6-ylamino)-9H-purin-6-ylamino]-2-methyl-propan-1-ol], the inhibition at 10 µM was < 50%. As for `CC(C)(C)Nc1nc(Nc2ccc3ccccc3c2)nc2[nH]c(Br)nc12` [Example 69, 8-Bromo-N*6*-tert-butyl-N*2*-naphthalen-2-yl-9H-purine-2,6-diamine], the inhibition at 10 µM lay within 50 to 65%. As to `C=Cc1nc2c(NC(C)(C)C)nc(Nc3ccc4ccccc4c3)nc2[nH]1` [Example 70, N*6*-tert-Butyl-N*2*-naphthalen-2-yl-8-vinyl-9H-purine-2,6-diamine], the inhibition at 10 µM is < 50%.
